This data set is described as follows: log P determination by HPLC (reversed-phase C18), EEC Directive 79/831 Annex V.A8. The data set is classed as physicochemical. Conditions: reversed-phase C18 HPLC column; pH 2.3; HPLC, reversed-phase C 18, 43° C., 0.1% aqueous phosphoric acid/acetonitrile; read-out: log P (pH 2.3). As for the experimental part:
The stated log P values were determined in accordance with EEC Directive 79/831 Annex V.A8 by HPLC (High Performance Liquid Chromatography) using a reversed-phase column, (C 18). Temperature: 43° C. Mobile phases for the determination in the acidic range: 0.1% aqueous phosphoric acid, acetonitrile; linear gradient from 10% acetonitrile to 90% acetonitrile. Calibration was carried out using unbranched alkan-2-ones (having 3 to 16 carbon atoms) with known logP values (determination of the logP values by the retention times using linear interpolation between two successive alkanones).

Consider `CC(C)(C)c1ccc(NC(=O)NCCCOC(=O)CSc2nccc(-c3ccccn3)n2)cc1` [Example 130], for which the chromatographic logP amounted to 3.51.

Regarding `CCOC(=O)C(C)N(C)C(=O)CSc1nccc(-c2ccccn2)n1` (centres unmarked) [Example 310], the chromatographic logP is 1.93.

Regarding `O=C(CSc1nccc(-c2ccccn2)n1)NCC1CC1` [Example 67], the chromatographic logP was 1.83.

As for `O=C(CSc1nccc(-c2ccccn2)n1)N/N=C/c1ccc([N+](=O)[O-])cc1` [Example 135], the chromatographic logP came out at 2.23.

With `CC(NC(=O)CSc1nccc(-c2ccccn2)n1)c1ccc(Cl)cc1` (centres unmarked) [Example 50], the chromatographic logP came to 2.58.

`CN(C(=O)CSc1nccc(-c2ccccn2)n1)C1CCCCC1` [Example 61]: the chromatographic logP was 2.67.

On to `Cn1nnc(CSc2nccc(-c3ccccn3)n2)n1` [Example 300], for which the chromatographic logP was 1.59.

In the case of `CCOC(=O)CSc1nccc(-c2ccc(Br)cn2)n1` [Example 305], the chromatographic logP amounted to 3.39.

Turning to `CCCOC(=O)C(Sc1nccc(-c2ccccn2)n1)C(C)C` (centres unmarked) [Example 80], the chromatographic logP was found to be 3.96.

Consider `O=C(CSc1nccc(-c2ccccn2)n1)OC1CS(=O)(=O)C1` [Example 173], for which the chromatographic logP came to 1.67.

On to `O=C(CSc1nccc(-c2ccccn2)n1)OC1COCOC1` [Example 127], for which the chromatographic logP was determined as 1.76.

Take `CCOC(=O)c1cc(NC(=O)NCCCOC(=O)CSc2nccc(-c3ccccn3)n2)ccc1Cl` [Example 304]: the chromatographic logP was 5.37.

In the case of `CC(=O)OC(C)C(C)OC(=O)CSc1nccc(-c2ccccn2)n1` (centres unmarked) [Example 246], the chromatographic logP amounted to 2.54.

For the compound `O=C(CSc1nccc(-c2ccccn2)n1)NCc1ccccc1OC(F)(F)F` [Example 39], the chromatographic logP was 2.72.

Consider `CC(C)=CCOC(=O)CSc1nccc(-c2ccccn2)n1` [Example 96], for which the chromatographic logP worked out at 3.18.

Turning to `NC(=O)CCSc1nccc(-c2ccccn2)n1` [Example 314], the chromatographic logP came out at 0.96.

On to `CC(OC(=O)CSc1nccc(-c2ccccn2)n1)C(F)(F)F` (centres unmarked) [Example 121], for which the chromatographic logP worked out at 3.06.

Consider `CCOC(=O)CN(CC)c1nccc(-c2ccccn2)n1` [Example 315], for which the chromatographic logP was found to be 2.13.

Turning to `CCOC(=O)C(F)Sc1nccc(-c2ccccn2)n1` (centres unmarked) [Example 113], the chromatographic logP worked out at 2.55.

`CCOC(=O)CSc1nccc(-c2ccc3ccccc3n2)n1` [Example 296]: the chromatographic logP came out at 3.49.

Consider `COC(=O)CSc1nc(-c2ccccn2)c2cc(Cl)ccc2n1` [Example 77], for which the chromatographic logP came out at 3.46.

On to `CCOC(=O)CNc1nccc(-c2ccccn2)n1` [Example 5, ethyl N-(4-(2-pyridinyl)-2-pyrimidinyl]glycinate], for which the chromatographic logP was determined as 1.14.

For `CCOC(=O)CN(C)c1nccc(-c2ccccn2)n1` [Example 6, ethyl N-methyl-N-[4-(2-pyridinyl)-2-pyrimidinyl]glycinate], the chromatographic logP turned out to be 1.66.

In the case of `CCOC(=O)CSc1nccc(-c2cc(CC)ccn2)n1` [Example 259], the chromatographic logP is 2.69.

With `O=C(NCCOC(=O)CSc1nccc(-c2ccccn2)n1)Nc1cccc2c1CCCC2` [Example 151], the chromatographic logP is 2.94.

With `CCOC(=O)CSc1nccc(-c2ncccc2CC)n1` [Example 266], the chromatographic logP was 2.22.

On to `O=C(CSc1nccc(-c2ccccn2)n1)OCC(F)F` [Example 116], for which the chromatographic logP is 2.25.

For the compound `CCOC(=O)CSc1nccc(-c2cccc(Cl)n2)n1` [Example 111], the chromatographic logP stood at 3.19.

Regarding `CC(C)(C)n1nnc(CSc2nccc(-c3ccccn3)n2)n1` [Example 302], the chromatographic logP stood at 2.69.

`CCOC(=O)CSc1ncc(C)c(-c2ccccn2)n1` [Example 271]: the chromatographic logP worked out at 2.18.

As for `O=C(CSc1nccc(-c2ccccn2)n1)OCC(Cl)Cl` [Example 123], the chromatographic logP worked out at 2.78.

`O=C(CSc1nccc(-c2ccccn2)n1)OCc1ccccc1` [Example 19]: the chromatographic logP was 2.99.
